Values quoted from earlier work, collected in patent US20250248977A1, “Tablet Formulation Of Tafamidis Or Pharmaceutically Acceptable Salt Thereof” (Navinta LLC, priority 2024, published 2025).

SMILES: O=C(O)c1ccc2nc(-c3cc(Cl)cc(Cl)c3)oc2c1 [Tafamidis, 2-(3,5-dichlorophenyl)-1,3-benzoxazole-6-carboxylic acid]
- aqueous solubility: low
